According to article PMC6739424, “Osh Proteins Control Nanoscale Lipid Organization Necessary for PI(4,5)P2 Synthesis” (Molecular Cell, 2019):

Biological target: T1, zPIP5K (zebrafish PIP5K1A, zPIP5K1Aα) (Danio rerio, UniProt Q503I3)
T1 construct: gene pip5k1aa; kinase domain aa 49-431, His-tagged (pET21b+), E. coli
Assay: real-time liposome assay with NBD-PHPLCδ PI([…])P2 sensor
Type: biochemical
Conditions: ATP 80 uM, 2 mM MgCl2, pH 7.5; liposomes without PS or sterol; allosteric sigmoidal fit

T1 sequence (Q503I3 49-431): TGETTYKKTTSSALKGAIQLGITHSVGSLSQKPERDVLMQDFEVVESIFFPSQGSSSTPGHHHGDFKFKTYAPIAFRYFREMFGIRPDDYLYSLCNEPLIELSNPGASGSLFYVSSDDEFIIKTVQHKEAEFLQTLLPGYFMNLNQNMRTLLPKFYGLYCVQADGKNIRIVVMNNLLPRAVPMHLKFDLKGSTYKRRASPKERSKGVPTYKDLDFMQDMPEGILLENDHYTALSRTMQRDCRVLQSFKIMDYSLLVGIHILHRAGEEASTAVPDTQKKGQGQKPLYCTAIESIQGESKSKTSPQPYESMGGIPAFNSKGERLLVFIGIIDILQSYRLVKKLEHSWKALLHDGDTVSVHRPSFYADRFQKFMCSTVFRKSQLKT

apparent Km: 6.2 mol%
Substance: L-α-phosphatidylinositol-4-phosphate [bPI4P]
